This is an account of results in patent publication US20250171457A1, “NITROGEN-CONTAINING HETEROCYCLIC COMPOUND HAVING NRF2 ACTIVATION EFFECT” (CHUGAI SEIYAKU KABUSHIKI KAISHA, priority 2022, published 2025).

The subject of the test is Nrf2 transcriptional activity (pARE-Luc reporter) in HepG2 cells. Put plainly: In vitro Nrf2 transcriptional activity measurement by ARE-dependent reporter assay in HepG2 cell. Format: cell-based, human. Particulars: Homo sapiens; HepG2 cells transfected with pARE-Luc, 4 hours at 37° C.; luciferase activity of Example 1-54 or Example 17-23 at 3.75 μM defined as 100%. The protocol: Test Example 1: In Vitro Nrf2 Transcriptional Activity Measurement by ARE-Dependent Reporter Assay in HepG2 Cell
A human liver cancer-derived cell line HepG2 was transfected with pGL4.37 vector (pARE-Luc, Promega Corp.) and incubated overnight at 37° C. in a humidified atmosphere containing 5% CO2. The cells were dissociated by trypsin treatment, inoculated to a 384-well plate supplemented with a test compound, and incubated at 37° C. for 4 hours. Then, Bright-Glo Reagent (Promega Corp.) was added to the plate, and luciferase activity was measured with Envision plate reader.
Luciferase activity obtained through the action of the compound of Example 1-54 or Example 17-23 at a concentration of 3.75 μM was defined as 100%. The luciferase activity of each well was converted to a response rate (%). The dose-response curve of the compound of each Example was prepared to calculate a 50% effective concentration (EC50).
With `O=C(O)c1cc(F)c(-c2cccc3c2OCN(C(=O)c2c(Cl)cc(N4CC5CCC(C4)O5)cc2Cl)C3)cc1N1C2CCC1COC2` [Compound 1-37, 4-[3-[2,6-Dichloro-4-(8-oxa-3-azabicyclo[3.2.1]octan-3-yl)benzoyl]-2,4-dihydro-1,3-benzoxazin-8-yl]-5-fluoro-2-(3-oxa-8-azabicyclo[3.2.1]octan-8-yl)benzoic acid], the EC50 (in general, the concentration needed to bring the measured effect to its halfway point) was 2.1 nM.

`O=C(O)c1cc(F)c(-c2cccc3c2OCN(C(=O)c2c(Cl)cc(N4CCOC5CC54)cc2Cl)C3)cc1N1C2CCC1COC2` (stereo not drawn) [Compound 1-38, 4-[3-[2,6-Dichloro-4-(2-oxa-5-azabicyclo[4.1.0]heptan-5-yl)benzoyl]-2,4-dihydro-1,3-benzoxazin-8-yl]-5-fluoro-2-(3-oxa-8-azabicyclo[3.2.1]octan-8-yl)benzoic acid] yielded an EC50 of 1.8 nM.

Consider `O=C(O)c1cc(F)c(-c2cccc3c2OCN(C(=O)c2c(Cl)cc(N4CCn5nccc5C4)cc2Cl)C3)cc1N1C2CCC1COC2` [Compound 1-39], for which the midpoint of the response, the EC50, lay at 18 nM.

In the case of `COC1CN(c2cc(Cl)c(C(=O)N3COc4c(cccc4-c4cc(N5C6CCC5COC6)c(C(=O)O)cc4F)C3)c(Cl)c2)CCO1` (stereo not drawn) [Compound 1-40, 4-[3-[2,6-Dichloro-4-(2-methoxymorpholin-4-yl)benzoyl]-2,4-dihydro-1,3-benzoxazin-8-yl]-5-fluoro-2-(3-oxa-8-azabicyclo[3.2.1]octan-8-yl)benzoic acid], the midpoint of the response, the EC50, lay at 3 nM.

Consider `O=C(O)c1cc(F)c(-c2cccc3c2OCN(C(=O)c2c(Cl)cc(N4C5CCC4COC5)cc2Cl)C3)cc1N1C2CCC1COC2` [Compound 1-41, 4-[3-[2,6-Dichloro-4-(3-oxa-8-azabicyclo[3.2.1]octan-8-yl)benzoyl]-2,4-dihydro-1,3-benzoxazin-8-yl]-5-fluoro-2-(3-oxa-8-azabicyclo[3.2.1]octan-8-yl)benzoic acid], for which a half-maximal effect (EC50) was put at 2 nM.

For the compound `C[C@@H]1COCCN1c1cc(Cl)c(C(=O)N2COc3c(cccc3-c3cc(N4C5CCC4COC5)c(C(=O)O)cc3F)C2)c(Cl)c1` [Compound 1-42, 4-[3-[2,6-Dichloro-4-[(3R)-3-methylmorpholin-4-yl]benzoyl]-2,4-dihydro-1,3-benzoxazin-8-yl]-5-fluoro-2-(3-oxa-8-azabicyclo[3.2.1]octan-8-yl)benzoic acid], the response was half-maximal at 2.6 nM (EC50).

The compound `O=C(O)c1cc(F)c(-c2cccc3c2OCN(C(=O)c2c(Cl)cc(N4C5CCCC4COC5)cc2Cl)C3)cc1N1C2CCC1COC2` [Compound 1-43, 4-[3-[2,6-Dichloro-4-(3-oxa-9-azabicyclo[3.3.1]nonan-9-yl)benzoyl]-2,4-dihydro-1,3-benzoxazin-8-yl]-5-fluoro-2-(3-oxa-8-azabicyclo[3.2.1]octan-8-yl)benzoic acid] registered an EC50 of 1.8 nM.

The compound `O=C(O)c1cc(F)c(-c2cccc3c2OCN(C(=O)c2c(Cl)cc(N4CC(F)(F)C(F)(F)C4)cc2Cl)C3)cc1N1C2CCC1COC2` [Compound 1-44, 4-[3-[2,6-Dichloro-4-(3,3,4,4-tetrafluoropyrrolidin-1-yl)benzoyl]-2,4-dihydro-1,3-benzoxazin-8-yl]-5-fluoro-2-(3-oxa-8-azabicyclo[3.2.1]octan-8-yl)benzoic acid] returned an EC50 of 6.5 nM.

On to `CN1CCN(c2cc(Cl)c(C(=O)N3COc4c(cccc4-c4cc(N5C6CCC5COC6)c(C(=O)O)cc4F)C3)c(Cl)c2)CC(F)(F)C1` [Compound 1-45, 4-[3-[2,6-Dichloro-4-(6,6-difluoro-4-methyl-1,4-diazepan-1-yl)benzoyl]-2,4-dihydro-1,3-benzoxazin-8-yl]-5-fluoro-2-(3-oxa-8-azabicyclo[3.2.1]octan-8-yl)benzoic acid], for which the EC50 worked out at 3.7 nM.

Compound `Cn1cc2c(n1)CN(c1cc(Cl)c(C(=O)N3COc4c(cccc4-c4cc(N5C6CCC5COC6)c(C(=O)O)cc4F)C3)c(Cl)c1)C2` [Compound 1-46, 4-[3-[2,6-Dichloro-4-(2-methyl-4,6-dihydropyrrolo[3,4-c]pyrazol-5-yl)benzoyl]-2,4-dihydro-1,3-benzoxazin-8-yl]-5-fluoro-2-(3-oxa-8-azabicyclo[3.2.1]octan-8-yl)benzoic acid] yielded a 50% effective concentration (EC50) of 1.9 nM.

Take `N#CC1CC2(C1)CN(c1cc(Cl)c(C(=O)N3COc4c(cccc4-c4cc(N5C6CCC5COC6)c(C(=O)O)cc4F)C3)c(Cl)c1)C2` [Compound 1-47, 4-[3-[2,6-Dichloro-4-(6-cyano-2-azaspiro[3.3]heptan-2-yl)benzoyl]-2,4-dihydro-1,3-benzoxazin-8-yl]-5-fluoro-2-(3-oxa-8-azabicyclo[3.2.1]octan-8-yl)benzoic acid]: a half-maximal response (EC50) required 12 nM.

In turn, `CN1CC2CN(c3cc(Cl)c(C(=O)N4COc5c(cccc5-c5cc(N6CCOCC6)c(C(=O)O)cc5F)C4)c(Cl)c3)CC2C1` (stereo not drawn) [Compound 1-48, 4-[3-[2,6-Dichloro-4-(2-methyl-1,3,3a,4,6,6a-hexahydropyrrolo[3,4-c]pyrrol-5-yl)benzoyl]-2,4-dihydro-1,3-benzoxazin-8-yl]-5-fluoro-2-morpholin-4-ylbenzoic acid] came in with a concentration giving a half-maximal response (EC50) of 2.3 nM.

For `O=C(O)c1cc(F)c(-c2cccc3c2OCN(C(=O)c2c(Cl)cc(N4CCC5(CCOC5)C4)cc2Cl)C3)cc1N1CCOCC1` (stereo not drawn) [Compound 1-49, 4-[3-[2,6-Dichloro-4-(2-oxa-7-azaspiro[4.4]nonan-7-yl)benzoyl]-2,4-dihydro-1,3-benzoxazin-8-yl]-5-fluoro-2-morpholin-4-ylbenzoic acid], the EC50 came out at 1.9 nM.

`O=C(O)c1cc(F)c(-c2cccc3c2OCN(C(=O)c2c(Cl)cc(N4CCC4=O)cc2Cl)C3)cc1N1CCOCC1` [Compound 1-50, 4-[3-[2,6-Dichloro-4-(2-oxoazetidin-1-yl)benzoyl]-2,4-dihydro-1,3-benzoxazin-8-yl]-5-fluoro-2-morpholin-4-ylbenzoic acid] showed an EC50 of 4.6 nM.

`O=C(O)c1cc(F)c(-c2cccc3c2OCN(C(=O)c2c(Cl)cc(N4CCOC4=O)cc2Cl)C3)cc1N1CCOCC1` [Compound 1-51, 4-[3-[2,6-Dichloro-4-(2-oxo-1,3-oxazolidin-3-yl)benzoyl]-2,4-dihydro-1,3-benzoxazin-8-yl]-5-fluoro-2-morpholin-4-ylbenzoic acid] gave an EC50 of 10 nM.

Turning to `O=C(O)c1cc(F)c(-c2cccc3c2OCN(C(=O)c2c(Cl)cc(N4CCCC4=O)cc2Cl)C3)cc1N1CCOCC1` [Compound 1-52, 4-[3-[2,6-Dichloro-4-(2-oxopyrrolidin-1-yl)benzoyl]-2,4-dihydro-1,3-benzoxazin-8-yl]-5-fluoro-2-morpholin-4-ylbenzoic acid], the response was half-maximal at 14 nM (EC50).

`CS(=O)(=O)C1CN(c2cc(Cl)c(C(=O)N3COc4c(cccc4-c4cc(N5CCOCC5)c(C(=O)O)cc4F)C3)c(Cl)c2)C1` [Compound 1-53, 4-[3-[2,6-Dichloro-4-(3-methylsulfonylazetidin-1-yl)benzoyl]-2,4-dihydro-1,3-benzoxazin-8-yl]-5-fluoro-2-morpholin-4-ylbenzoic acid] registered an EC50 of 5 nM.

Turning to `O=C(O)c1cc(F)c(-c2cccc3c2OCN(C(=O)c2c(Cl)cc(N4CCN(C5COC5)CC4)cc2Cl)C3)cc1N1CCOCC1` [Compound 1-55, 4-[3-[2,6-Dichloro-4-[4-(oxetan-3-yl)piperazin-1-yl]benzoyl]-2,4-dihydro-1,3-benzoxazin-8-yl]-5-fluoro-2-morpholin-4-ylbenzoic acid], it took 1.5 nM to reach a half-maximal effect (EC50).

For `CN1CCN(c2cc(Cl)c(C(=O)N3COc4c(cccc4-c4cc(N5CCOCC5)c(C(=O)O)cc4F)C3)c(Cl)c2)CC1` [Compound 1-56], the EC50 turned out to be 1.3 nM.

As to `CC(C)(O)CN1CCN(c2cc(Cl)c(C(=O)N3COc4c(cccc4-c4cc(N5CCOCC5)c(C(=O)O)cc4F)C3)c(Cl)c2)CC1` [Compound 1-57, 4-[3-[2,6-Dichloro-4-[4-(2-hydroxy-2-methylpropyl)piperazin-1-yl]benzoyl]-2,4-dihydro-1,3-benzoxazin-8-yl]-5-fluoro-2-morpholin-4-ylbenzoic acid], a half-maximal effect (EC50) was put at 1.4 nM.

`O=C(O)c1cc(F)c(-c2cccc3c2OCN(C(=O)c2c(Cl)cc(N4CCN(CCO)CC4)cc2Cl)C3)cc1N1CCOCC1` [Compound 1-58, 4-[3-[2,6-Dichloro-4-[4-(2-hydroxyethyl)piperazin-1-yl]benzoyl]-2,4-dihydro-1,3-benzoxazin-8-yl]-5-fluoro-2-morpholin-4-ylbenzoic acid]: the EC50 turned out to be 4.2 nM.

In turn, `O=C(O)c1cc(F)c(-c2cccc3c2OCN(C(=O)c2c(Cl)cc(N4CCOCC4)cc2Cl)C3)cc1N1CCOCC1` [Compound 1-59, 4-[3-(2,6-Dichloro-4-morpholin-4-ylbenzoyl)-2,4-dihydro-1,3-benzoxazin-8-yl]-5-fluoro-2-morpholin-4-ylbenzoic acid] returned a 50% effective concentration (EC50) of 1.2 nM.

`CN1CCC(N2CCN(c3cc(Cl)c(C(=O)N4COc5c(cccc5-c5cc(N6CCOCC6)c(C(=O)O)cc5F)C4)c(Cl)c3)CC2)CC1` [Compound 1-60, 4-[3-[2,6-Dichloro-4-[4-(1-methylpiperidin-4-yl)piperazin-1-yl]benzoyl]-2,4-dihydro-1,3-benzoxazin-8-yl]-5-fluoro-2-morpholin-4-ylbenzoic acid] showed an EC50 of 4.2 nM.

Regarding `O=C(O)c1ccc(-c2cccc3c2OCN(C(=O)c2c(Cl)cc(N4CC5(CCCO5)C4)cc2Cl)C3)cc1N1C2CCC1COC2` [Compound 1-61, 4-[3-[2,6-Dichloro-4-(5-oxa-2-azaspiro[3.4]octan-2-yl)benzoyl]-2,4-dihydro-1,3-benzoxazin-8-yl]-2-(3-oxa-8-azabicyclo[3.2.1]octan-8-yl)benzoic acid], a half-maximal effect (EC50) was put at 2.6 nM.
